Columns and labels:
Δ49N-hChoKα = molecular target: T1, Δ49N-hChoKα (Homo sapiens, UniProt P35790); assay: Biochemical kinase inhibition assay (Kinase-Glo luminescent) on Δ49N-hChoKα; settings: recombinant Δ49N-hChoKα 2.2 nM, ATP 5 μM, choline 5 μM, 60 min rt; read-out: ChoKα IC50
T1 construct: cDNA fragment 362-1534, corresponding to aminoacids 50 457; GST (N, cleaved yes); PreScission Protease recognition site (N); made in house; host or cells: Escherichia coli BL21pLysS (DE3)
How it was run: (§1)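 Kinase-Glo residual-ATP luminescence with in-house E. coli-expressed, tag-cleaved enzymes: Δ49N-hChoKα 2.2 nM with 5 μM choline; hChoKβ FL 30 nM with 20 μM choline. Both used 5 μM ATP, 60 min at room temperature, 1% DMSO, pH 7.5 Hepes buffer. IC50 from 4-parameter fits of ten 3-fold dilutions from 10 μM.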

hChoKβ FL = molecular target: T2, hChoKβ FL (Homo sapiens, UniProt Q9Y259); assay: Biochemical kinase inhibition assay (Kinase-Glo luminescent) on hChoKβ FL; settings: recombinant hChoKβ FL 30 nM, ATP 5 μM, choline 20 μM, 60 min rt; read-out: ChoKβ IC50
T2 construct: hChoKβ full length (FL), corresponding to aminoacids 2-395; GST (N, cleaved yes); PreScission Protease recognition site (N); made in house; host or cells: Escherichia coli BL21pLysS (DE3)
How it was run: as §1

T1 sequence (P35790 50-439 isoform P35790-2): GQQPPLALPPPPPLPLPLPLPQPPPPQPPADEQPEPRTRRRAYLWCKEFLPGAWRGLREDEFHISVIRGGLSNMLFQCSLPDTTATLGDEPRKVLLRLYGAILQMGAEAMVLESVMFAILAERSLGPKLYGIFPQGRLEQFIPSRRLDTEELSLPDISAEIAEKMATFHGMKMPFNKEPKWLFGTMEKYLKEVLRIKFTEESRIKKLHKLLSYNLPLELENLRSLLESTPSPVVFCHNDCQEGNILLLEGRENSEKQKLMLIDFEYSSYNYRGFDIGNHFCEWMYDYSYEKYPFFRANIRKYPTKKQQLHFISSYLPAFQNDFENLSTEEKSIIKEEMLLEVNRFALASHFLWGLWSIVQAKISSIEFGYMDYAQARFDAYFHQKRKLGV
T2 sequence (Q9Y259 2-395): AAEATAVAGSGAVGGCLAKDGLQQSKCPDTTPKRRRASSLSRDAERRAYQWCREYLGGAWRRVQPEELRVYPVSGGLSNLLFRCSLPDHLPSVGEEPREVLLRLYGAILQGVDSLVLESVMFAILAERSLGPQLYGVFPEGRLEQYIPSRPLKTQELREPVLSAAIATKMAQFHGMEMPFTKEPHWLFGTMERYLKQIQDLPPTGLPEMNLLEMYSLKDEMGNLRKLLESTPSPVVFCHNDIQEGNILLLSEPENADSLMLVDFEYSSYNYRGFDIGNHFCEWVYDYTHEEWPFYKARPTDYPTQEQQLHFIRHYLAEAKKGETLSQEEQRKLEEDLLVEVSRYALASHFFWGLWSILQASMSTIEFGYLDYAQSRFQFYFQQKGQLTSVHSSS

Compound	IC50 (Δ49N-hChoKα)	IC50 (hChoKβ FL)
CN(C)CCCNC(=O)Cc1csc(NC(=O)c2n[nH]c3c2C(C)(C)Cc2cnc(N)nc2-3)n1 [compound 95]	0.015 µM	0.126 µM
CC1(C)Cc2cnc(N)nc2-c2[nH]nc(C(=O)Nc3cccc(C(=O)N4CCC(N5CCCC5)CC4)c3)c21 [compound 26]	0.266 µM	0.435 µM
CC1(C)Cc2cnc(N)nc2-c2[nH]nc(C(=O)Nc3ccc(C(=O)Nc4ccc(CN5CCCCC5)cc4)cc3)c21 [compound 59]	0.032 µM	0.734 µM
CC1(C)Cc2cnc(N)nc2-c2[nH]nc(C(=O)Nc3ccc(O)cc3)c21 [compound 105]	0.229 µM	0.398 µM
CN1CCC(NC(=O)c2ccc(NC(=O)c3nn(CCCO)c4c3C(C)(C)Cc3cnc(N)nc3-4)cc2)CC1 [compound 9]	0.693 µM	5.39 µM
CC1(C)Cc2cnc(N)nc2-c2[nH]nc(C(=O)Nc3nc(CC(=O)N4CCN(c5ccccc5)CC4)cs3)c21 [compound 160]	0.025 µM	2.21 µM
Cc1csc(NC(=O)c2nn(CCO)c3c2C(C)(C)Cc2cnc(N)nc2-3)n1 [compound 182]	0.458 µM	> 10 µM
CN1CCN(C2CCN(C(=O)c3ccc(NC(=O)c4n[nH]c5c4C(C)(C)Cc4cnc(N)nc4-5)cc3)CC2)CC1 [compound 41]	0.07 µM	0.471 µM
CC1(C)Cc2cnc(N)nc2-c2[nH]nc(C(=O)Nc3cccc(C(=O)O)c3)c21 [compound 18]	0.641 µM	6.35 µM
CN(C)[C@@H]1CCN(C(=O)Cc2cccc(NC(=O)c3n[nH]c4c3C(C)(C)Cc3cnc(N)nc3-4)c2)C1 [compound 142]	0.11 µM	0.671 µM
CCOC(=O)c1ccc(NC(=O)c2n[nH]c3c2C(C)(C)Cc2cnc(N)nc2-3)cc1 [compound 5]	0.481 µM	2.59 µM
CNc1ncc2c(n1)-c1c(c(C(=O)Nc3nc(CC(=O)N4CCC(N5CCC(C)CC5)CC4)cs3)nn1C)C(C)(C)C2 [compound 85]	0.052 µM	> 10 µM

The next lines start with the values.

IC50 (Δ49N-hChoKα)	IC50 (hChoKβ FL)	Compound
0.02 µM	0.376 µM	CC1(OCc2csc(NC(=O)c3n[nH]c4c3C(C)(C)Cc3cnc(N)nc3-4)n2)CCN(C2CCCCCC2)CC1 [compound 226]
0.002 µM	0.254 µM	CC1(C)CCN(C2CCN(C(=O)Cc3csc(NC(=O)c4n[nH]c5c4C(C)(C)Cc4cnc(N)nc4-5)n3)CC2)CC1 [compound 218]
0.682 µM	> 10 µM	CC1(C)Cc2cnc(N)nc2-c2[nH]nc(C(=O)N3CCC(N4CCCCC4)CC3)c21 [compound 38]
0.008 µM	0.146 µM	CC1(C)Cc2c(C(=O)Nc3nc(COC4CCN(C5CCCCCC5)CC4)cs3)n[nH]c2-c2nc(N)ncc21 [compound 232]
0.042 µM	0.122 µM	CC1(C)Cc2cnc(N)nc2-c2[nH]nc(C(=O)Nc3ccc(C(=O)N4CCC(N5CCCC5)CC4)cc3)c21 [compound 13]
0.024 µM	0.594 µM	CC1(C)Cc2cnc(N)nc2-c2[nH]nc(C(=O)Nc3nc(COC4CCN(C5CCC6(CC5)CC6)CC4)cs3)c21 [compound 230]
0.174 µM	5.34 µM	CN1CCc2nc(NC(=O)c3n[nH]c4c3C(C)(C)Cc3cnc(N)nc3-4)sc2C1 [compound 151]
0.2 µM	1.16 µM	Cc1nc(NC(=O)c2n[nH]c3c2C(C)(C)Cc2cnc(N)nc2-3)sc1C(=O)NC1CCCCC1 [compound 77]
0.151 µM	0.273 µM	CC1(C)Cc2cnc(N)nc2-c2[nH]nc(C(=O)Nc3ccc(C(=O)N4CCC(N5CCC(F)(F)CC5)CC4)cc3)c21 [compound 51]
0.018 µM	3.55 µM	Cn1nc(C(=O)Nc2nc(COC3CCN(C4CCCCCC4)CC3)cs2)c2c1-c1nc(N)ncc1CC2(C)C [compound 217]
0.011 µM	0.928 µM	CC1(C)Cc2cnc(N)nc2-c2[nH]nc(C(=O)Nc3nc(CC(=O)NC4CCN(C5CCCCC5)CC4)cs3)c21 [compound 145]
0.135 µM	2.85 µM	CC1(C)Cc2cnc(N)nc2-c2[nH]nc(C(=O)Nc3cccc(CN4CCC(N5CCCCC5)CC4)c3)c21 [compound 110]

Source: patent US11117901B2, “Substituted pyrazolo[4,3-h]quinazolines as choline kinase inhibitors” (NERVIANO MEDICAL SCIENCES S.R.L., priority 2017, dated 2021)
